The text below walks through data of a melting point compilation (Tetko et al.; mined from patent text by program, amines drawn as free bases though some values may be those of a salt).

Molecules are shown by their SMILES. Bounds are passed on as bounds.

Usually melting point stands for the temperature of the solid-liquid transition. As to `CCCNC(=O)Nc1cc(C(C)(C)C)c2c(c1)C(C)(C)CO2`, the melting point lay in the range of 193 to 194 °C.

On to `O=Cc1c(C#Cc2ccccc2)sc2ccccc12`, for which the melting point fell in the range of 105 to 106 °C.

For the compound `N=C(N)c1ccc2nc(-c3ccc(-c4nc5ccc(C(=N)N)cc5[nH]4)o3)[nH]c2c1`, the melting point was > 300 °C.

`Cc1noc(NS(=O)(=O)c2ccsc2C(N)=O)c1Br` gave a melting point of 168 to 170 °C.

The compound `Cc1ccc(-c2nc(Cc3cc4cc(C=O)ccc4o3)c(C)o2)cc1` displayed a melting point of 126 to 130 °C.

Consider `CC(=O)NCC1CC(c2ccc(N3CCCC3)c(F)c2)=NO1` (stereo unspecified), for which the melting point is 141 to 143 °C.

`CC(C)c1cc(-c2ccc(F)c3ccc(F)cc23)nc(N)n1` yielded a melting point of 103 to 105 °C.

In turn, `O=S(=O)(c1cccs1)N(c1cccc2cc(C3=NCC(CN4CCOCC4)S3)[nH]c12)C(F)F` (stereo unspecified) showed a melting point of 185 to 186 °C.

For `O=S(=O)(F)C=CNc1ccc(Cl)cc1`, the melting point was in the range of 61 to 63 °C.

`COc1ccc2c(c1)CCC1CCNC(=O)C(CCl)=C21` (stereo unspecified): the melting point lay within 135 to 138 °C.

Consider `CC(=O)Oc1ccc(CN/C=C2\C(=O)NC(=O)c3ccccc32)cc1OC(C)=O`, for which the melting point lay in the range of 184 to 186 °C.

In the case of `CC(C)(C)c1cc(C(=O)Nc2ccccc2NC(=O)N(Cc2ccccc2)Cc2ccccc2)cc(C(C)(C)C)c1O`, the melting point fell in the range of 187 to 189 °C.

In the case of `CCOC(=O)C1=Cc2cc(-c3ccc(OCC)cc3)ccc2OCC1`, the melting point was 124 to 127 °C.

`CCn1c(=O)c(C#N)c(N2CCCC2)c2ccc(C)nc21` displayed a melting point of 211 to 213 °C.

Turning to `Cc1ccc(-c2ncn3c2CN(N(C)C)c2ccccc2-3)cc1`, the melting point lay within 204 to 205 °C.

Compound `O=C(Nc1cccc(O)c1)O[C@@H]1CN=C(c2ccccc2)O[C@H]1c1ccccc1` (racemic) registered a melting point of 170 °C.

Compound `Cc1cccc(Nc2c([N+](=O)[O-])cc(C(=O)O)cc2S(N)(=O)=O)c1` had a melting point of 256 to 259 °C.

Compound `CC(=O)N1c2ccc(-c3ccc(C#N)cc3)cc2C(Nc2ccc(F)cc2)CC1C` (stereo unspecified) came in with a melting point of 140 °C.

`CCc1cc(OCc2ccccc2)cc(C(=O)O)c1C(=O)OC` returned a melting point of 135 to 136 °C.

For `CC(=O)n1c(SC(F)(F)C(F)F)nc(-c2ccccc2)c1-c1ccccc1`, the melting point was in the range of 143 to 144 °C.

Compound `CC(C)(C)OC(=O)N1CCc2cccc([N+](=O)[O-])c2CC1` came in with a melting point of 85 to 88 °C.

In the case of `CN1CCC2(c3cccc(O)c3)CCCC2C1` (stereo unspecified), the melting point lay within 151 to 153 °C.

The compound `FC(F)(F)c1cc(C(F)(F)F)cc(P(=S)(S)c2cc(C(F)(F)F)cc(C(F)(F)F)c2)c1` yielded a melting point of 72 to 74 °C.

Take `Cc1ccc(C(=O)Nc2cc(-n3cncc3C)cc(C(F)(F)F)c2)cc1Nc1nccc(-c2cccnc2)n1`: the melting point lay within 231 to 233 °C.

With `Cc1c(-c2ccncn2)nc2n(c1=O)CCCN2`, the melting point lay within 206 to 207 °C.

Turning to `c1ccc(OCCN2CCC(CNc3nc4ccccc4s3)CC2)cc1`, the melting point turned out to be 116 °C.

In turn, `CCCOc1c(OCc2ccccc2)cc([C@H]2CC[C@H](c3cc(OC)c(OC)c(OC)c3)O2)cc1S(=O)(=O)CCO` (relative stereo) showed a melting point of 112 to 113 °C.

`O=C(Oc1ccccc1)N1CCC2(CC1)SC(c1ccc(Cl)cc1)c1ccccc12` (stereo unspecified) came in with a melting point of 211 to 212 °C.

Turning to `CCCCCCCCS(=O)(=O)Nc1ccccc1Oc1ccccc1C(=O)O`, the melting point fell in the range of 100 to 102 °C.

In the case of `CN1CC(C[N+]2([O-])CC(=O)NC2=O)CC2c3cccc4[nH]cc(c34)CC21` (stereo unspecified), the melting point was in the range of 163 to 165 °C.

Compound `OCC(CO)C1c2ccccc2-c2ccccc21` had a melting point of 101 °C.

In the case of `CCc1cnccc1C[C@@H](O)C(Cl)(Cl)Cl`, the melting point is 132 to 134 °C.

Take `O=C1c2c(-c3ccc(Cl)cc3)noc2CCC1CCCN1CCN(C(c2ccc(F)cc2)c2ccc(F)cc2)CC1` (stereo unspecified): the melting point lay in the range of 150 to 152 °C.

The compound `C[C@](O)(COc1ccc(C#N)cc1)C(=O)Nc1ccc(C#N)c(C(F)(F)F)c1` yielded a melting point of 92 to 94 °C.

`Cc1nc2ccccc2cc1NC(=O)N1CCN(c2cccc3ccccc23)CC1` gave a melting point of 220 to 222 °C.

`COc1cccc(COCc2cccc(OC)c2OC)c1OC` gave a melting point of 58 to 60 °C.

With `CN(C)C(=O)C1=NO[C@@H](c2ccccc2)C1`, the melting point lay in the range of 59 to 61 °C.

`CC(=O)c1ccc(C(=O)NCC(=O)NCC(F)(F)F)c2ccccc12` gave a melting point of 169 °C.

Compound `CC(=O)NC1CCN(c2cccc(C)n2)CC1` returned a melting point of 145 to 147 °C.

`O=C(NC1CCCCC1)c1ccc(Cn2cnc3ccccc32)cc1` displayed a melting point of 189 to 191 °C.

The compound `O=C(Nc1ccc(-c2ccccc2)cc1)c1ccc2n1Cc1ccccc1N(C(=O)COc1ccc(Cl)cc1)C2` displayed a melting point of 201 to 202 °C.

The compound `NC(=O)CCCCCOc1ccc(C#Cc2ccc(C(=O)O)cc2)cc1C12CC3CC(CC(C3)C1)C2` yielded a melting point of 269 to 270 °C.

`CN1C(=O)c2cnc(-c3ccccc3)nc2N(C(=O)CN2CCCC2)c2ccccc21` displayed a melting point of 196 °C.

Compound `COCCN1CCc2ccc(Nc3ncc(Cl)c(N[C@@H]4CCCC[C@H]4NC(=O)C(F)(F)F)n3)cc2CC1` had a melting point of 180 to 182 °C.

The compound `NC(=O)c1cc2c(Oc3ccc(-n4ccnc4)cc3)cncc2s1` displayed a melting point of 310 to 312 °C.

`O=C(O)Cc1coc2cc(OCc3ccccc3OCc3ccc(C(F)(F)F)cc3)ccc12` returned a melting point of 126 to 127 °C.

`O=c1c2cccnc2c(-c2cccc(Cl)c2)nn1-c1ccccc1` gave a melting point of 144 to 145 °C.

`Cc1cccc(-c2nc3ccccn3c2-c2ccnc(-c3ccc(C(=O)NC4CCOCC4)cc3)c2)n1` displayed a melting point of 128 °C.

In turn, `CN(C)C=Cc1c(N)cc([N+](=O)[O-])cc1[N+](=O)[O-]` gave a melting point of 105 to 107 °C.

In the case of `COCCOC(=O)C1=NNC(C)=C(C(=O)OC(C)C)C1c1cccc([N+](=O)[O-])c1` (stereo unspecified), the melting point stood at 165 °C.

In the case of `Cc1ccc(Sc2cc3c(cc2Sc2ccc(C)cc2)C(=O)c2c(c(O)c4cc(Sc5ccc(C)cc5)c(Sc5ccc(C)cc5)cc4c2O)C3=O)cc1`, the melting point is > 265 °C.

Compound `CC(=O)OC1CSC(Oc2cccnc2-c2ccccc2)C(OC(C)=O)C1OC(C)=O` (stereo unspecified) gave a melting point of 69 to 101 °C.

With `C=CCNc1cc(OCC=C)c(C(=O)O)cc1Cl`, the melting point is 83.5 to 86 °C.

With `CCCCc1nc2c(N)nc3ccccc3c2n1CCCC1(C)OCCO1`, the melting point fell in the range of 169 to 172 °C.

The compound `NC(=O)c1ccc(CCC[N@]2C[C@@H]2c2ccccc2)s1` gave a melting point of 117 to 119 °C.

In the case of `Cc1cccc(C(=O)Nc2cn(C3CCCCO3)nc2C(=O)NCC(F)(F)F)n1` (stereo unspecified), the melting point lay within 184 to 185 °C.

The compound `c1coc(-c2nc(NCC3CC3)cc(-n3cccn3)n2)c1` showed a melting point of 101 to 102 °C.

Compound `COC(=O)c1nccnc1NS(=O)(=O)c1cccc(Cl)c1Cl` displayed a melting point of 177 to 178 °C.

Compound `CCCn1c(=O)c2[nH]c(-c3cc(C)n(CC(=O)Nc4ccc(C)c(C)c4)n3)nc2n(CCC)c1=O` came in with a melting point of 261 to 265 °C.

Compound `COc1ccc(-c2cnoc2-c2ccc(OC(C)C)cc2O)cc1` came in with a melting point of 148 to 149 °C.

`O=C(CCCCCNC(=O)C(=O)c1cn2c3c(cccc13)CCC2)NOCc1ccccc1` had a melting point of 119 to 121 °C.

With `O=C1c2c(-c3ccccc3F)noc2CCC1CCCN1CCN(c2ncccn2)CC1` (stereo unspecified), the melting point was 115 to 117 °C.

Regarding `Clc1cncc(Cl)c1CBr`, the melting point is 40 to 44 °C.

As for `CCc1ccc2[nH]c(=O)oc(=O)c2c1`, the melting point lay in the range of 178 to 181 °C.

`COC(=O)C(C(C)=O)C(c1cccc([N+](=O)[O-])c1)C(C(C)=O)C(=O)OC` (stereo unspecified) returned a melting point of 94 to 96 °C.

For `Cc1c(SCC(=O)N2CCOC(CN(C)C)C2)ccnc1CSc1nc2ccccc2[nH]1` (stereo unspecified), the melting point stood at 160 °C.

In turn, `Cc1ccc(C(=O)O)c(-c2ccc(Cl)c(C(=O)NCC34CC5CC(CC(C5)C3)C4)c2)n1` had a melting point of 209 to 211 °C.

With `Cc1cc(N(C)C(=O)OC(C)(C)C)c(C)c(C)c1O`, the melting point was in the range of 163 to 166 °C.

Compound `COc1cc(C)nc(NC(=O)NS(=O)(=O)c2ccccc2N)n1` displayed a melting point of 210 to 215 °C.

With `CC(C)c1cccc(S(=O)(=O)n2c(CCCCC(=O)O)cc3cc(C(F)(F)F)ccc32)c1`, the melting point turned out to be 119 °C.

`CC(=O)COc1ccc([N+](=O)[O-])cc1` yielded a melting point of 77 to 78 °C.

As to `[N-]=[N+]=NC[C@H]1CN(c2ccc(Br)cn2)C(=O)O1`, the melting point was in the range of 64 to 67 °C.

Compound `COc1ccc(CNc2nc(CCCCC(=O)O)nc3sc(C)c(C)c23)cc1Cl` showed a melting point of 156 °C.

Regarding `CN(C)CCC1(c2ccccc2)Cc2ccccc2C(=O)O1` (stereo unspecified), the melting point lay within 95 to 95.5 °C.

Regarding `CCCCNC(=O)C(C)(O[Si](C)(C)C(C)(C)C)c1ccc([N+](=O)[O-])cc1` (stereo unspecified), the melting point was in the range of 49 to 50 °C.

The compound `COC(=O)/C(=C/c1ccc(OC)c(OC2CCCC2)c1)CC(=O)O` came in with a melting point of 119 to 121 °C.

Consider `N#CC(C=O)c1cccc(C(F)(F)F)c1` (stereo unspecified), for which the melting point was 103 to 106 °C.

The compound `Nc1ccc(Cl)cc1Cc1ccccc1Cl` came in with a melting point of 64 to 65 °C.

As for `O=C(O)CCCOc1ccccc1OCc1ccccc1`, the melting point lay within 75 to 76 °C.

The compound `CC(C)N(CCCNC(=O)Cn1ncc(-c2ccccc2)c1-c1ccccc1)C(C)C` came in with a melting point of 83 to 84 °C.

Take `O=C(O)c1cc(-c2ccc([N+](=O)[O-])cc2)c(-c2ccc(F)cc2)s1`: the melting point is 227 to 229 °C.

`CC1(C)CCC(C)(C)c2cc(C(=O)c3cccc(I)c3)ccc21` returned a melting point of 130 to 131 °C.

`COc1ccc(OCCO)c(C=O)c1` registered a melting point of 68 to 72 °C.

Take `COc1nc2ccccc2cc1NC(=O)N1CCN(c2cccc(OC(C)C)c2)CC1`: the melting point is 111 to 113 °C.

`COc1ccn2nc(-c3ccccc3)c(-c3ccc(=O)n(C(C)C)n3)c2c1Br` yielded a melting point of 205 to 206 °C.

Regarding `CC1=C(C(=O)c2ccc(C(=O)NCCC#N)cc2)C(=O)C2C=CC=CC2C1=O` (stereo unspecified), the melting point is 172 to 173 °C.
